Assay results taken from patent US20260200849A1, “CATIONIC LIPIDS AND PREPARATION METHOD THEREOF” (RiboX Therapeutics HK Limited, priority 2024, published 2026).
Values joined by “and” are separate entries in the source; they are usually repeats but may differ in a detail not shown here. Equal entries are not always repeated.

How the values were obtained:
[1] = system: Hep G2 cells; test: In vitro expression: luciferase activity in Hep G2 cells transfected with RNA-LNPs; format: cell-based; settings: Formulation No. 001, RNA No. 331 (firefly-luciferase), 100 ng/mL RNA-LNPs, 72 hours post transfection
Procedure: 2E5 Hep G2 cells were transfected with 100 ng/mL of RNA-LNPs encoding for firefly-luciferase. At 72 hours post transfection, the cells were washed and lysed. The luciferase expression (2-well repeat) was determined in the cell lysates with the luciferase assay reagent kit (Promega), according to the kit protocol, luciferase activity was measured by a luminometer.

[2] = system: Balb/c mice; test: In vivo expression by IV, 0.05 mg/kg luciferase RNA-LNPs, IVIS luminescence; settings: Formulation No. 001, RNA No. 331; female Balb/c mice, 0.05 mg*kg−1 intravenous, 24-hours post injection
Outline: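 Female Balb/c mice (7-8 weeks, N=3) received 0.05 mg*kg−1 firefly-luciferase RNA-LNPs IV. Luciferin (15 mg/ml) was given IP at 24 and 72 h post-dose for IVIS whole-body luminescence. A second run imaged whole body, liver and spleen at 24 h only.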

[3] = system: C57BL/6J mice; test: In vivo expression by IV, 1.0 mg/kg luciferase RNA-LNPs, whole-body and organ IVIS luminescence; settings: Formulation No. 001, RNA No. 331; male C57BL/6J mice, 1.0 mg*kg−1 intravenous, 24-hours post injection
Outline: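 Male C57BL/6J mice, 6-8 weeks old (N=3), received 1.0 mg*kg−1 firefly-luciferase RNA-LNPs IV. At 24 h post-dose, luciferin (15 mg/ml) was given IP, and whole-body, liver, spleen, kidney, small and large intestine luminescence was imaged by IVIS.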

[4] = system: IL-6; test: In vivo tolerability by IV: serum IL-6 by Luminex; set-up: species or system C57BL/6J mice; settings: Formulation No. 001, RNA No. 331, male C57BL/6J mice, 1.0 mg*kg/1 intravenous; for IL-6 at 2 h: 2 hours post injection; for IL-6 at 24 h: 24 hours post injection
Outline: (§1)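 Male C57BL/6J mice aged 6-8 weeks (N=3) received 1.0 mg*kg−1 firefly-luciferase RNA-LNPs intravenously, with PBS as negative control. Serum taken at 2 and 24 h post-injection was assayed for MCP-1 and IL-6 by Luminex.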

[5] = LNP size and polydispersity index (PDI) by dynamic light scattering (Zetasizer); format: physicochemical; settings: for Size (nm): Formulation No. 001 (Ionizable lipid:DSPC:cholesterol:DMG-PEG2000 = 50:10:38.5:1.5, N/P 6), RNA No. 331
Procedure: (§2) The LNP size and polydispersity index (PDI), determined by dynamic light scattering (DLS), and zeta potential were measured by a Zetasizer machine (Malvern). RNA concentration and encapsulation efficacy (EE %) were analyzed by the Quant-IT Ribogreen kit by calculating the percentage encapsulation at 100%—(RNA-LNPs/RNA-LNPs with Triton X-100).

[6] = In vivo lipid metabolism by IV: ionizable lipid concentration in plasma and liver by LC-MS/MS; set-up: species or system Sprague-Dawley (SD) rats; settings: IV 0.15 mg/kg RNA-LNPs (hEPO), male SD rats, individual animals N=3
Procedure: In Vivo Lipid Metabolism by IV 7-8 week old, male Sprague-Dawley (SD) rats (N=3) were injected with 0.15 mg*kg−1 of RNA-LNPs encoding for hEPO by intravenous injection. At 1-/6-/96-/168-hours post injection, about 100 μL blood will be harvested and immediately added to the EDTAK2 containing tube. Place on wet ice and then centrifuged at 3000 g×5 min to obtain plasma. 30 μL plasma will be aliquoted to the 1.5 mL tubes. At terminal 6-/168-hours post injection, the rats will be euthanized with CO2, hemorrhaged immediately with cardiac puncture, respectively. The livers were harvested, weighed and washed with saline, then put into 50 ml centrifuge tube placed in liquid nitrogen, then transferred into wet ice, and finally stored at −80° C. immediately. Both plasma and liver samples were used for ionizable lipid concentration quantification by LC-MS/MS. The lower limit of quantitation (LLOQ) is 1 ng/mL in plasma or 11 ng/g in liver. BQL—Below the lower limit of quantitation (LLOQ).

[7] = system: MCP-1; test: In vivo tolerability by IV: serum MCP-1 by Luminex; set-up: species or system C57BL/6J mice; settings: Formulation No. 001, RNA No. 331, male C57BL/6J mice, 1.0 mg*kg/1 intravenous; for MCP-1 at 2 h: 2 hours post injection; for MCP-1 at 24 h: 24 hours post injection
Outline: as §1

[8] = RNA encapsulation efficacy (EE %) by Quant-IT Ribogreen kit; format: physicochemical; settings: LNP
Procedure: as §2

[9] = system: Hep G2 cells; test: In vitro toxicity: Hep G2 cell viability by CellTiter-Glo; format: cell-based; settings: Formulation No. 001, RNA No. 331, 1 μg/mL RNA-LNPs, 72 hours post transfection, cell only = 100%
Procedure: 2E5 Hep G2 cells were transfected with 1 μg/mL RNA-LNPs. At 72 hours post transfection, cell viability (2-well repeat) was determined with the CellTiter-Glo® reagent kit, according to the kit protocol, measured by a luminometer. Cell only as control (100%).
The cell viability was calculated according to the following formula: […]

[10] = Formulation No. 001, RNA No. 019 (hEPO)
[11] = Formulation No. 001, RNA No. 331

Size (nm) [5] | PDI [5, 11] | EE (%) [8, 11] | SMILES | In vitro Expression (Mean) [1] | Liver (p/s) (Mean) [2] | Spleen (p/s) (Mean) [2] | Whole body (p/s) (Mean) [2] | Kidney (p/s) [3] | Large intestine (p/s) [3] | Liver (p/s) [3] | Small intestine (p/s) [3] | Spleen (p/s) [3] | Whole body (p/s) [3] | IL-6 at 2 h [4] | IL-6 at 24 h [4] | MCP-1 at 2 h [7] | MCP-1 at 24 h [7] | In vitro cell viability (%) (Mean) [9] | also measured
78.20 nm | 0.05 | 90.24% | CCCCCCCCCCCOC(=O)CCCCCOC(=O)C(COC(=O)NCCN1CCCCCC1)NC(=O)OCCCCCCCCOC(=O)C(CCCCCC)CCCCCCCC (stereo not shown) [Lipid 924] | 6.15E+05 | 9.02E+08 p/s | 2.37E+08 p/s | 3.08E+09 p/s | 3.17E+07 p/s | 3.25E+08 p/s | 5.23E+09 p/s | 7.18E+08 p/s | 1.13E+09 p/s | 4.40E+09 p/s | 47.1 pg/mL | 5.9 pg/mL | 1390 pg/mL | 207 pg/mL | 89.34% | PDI [5, 10]: 0.16; Size [5, 10]: 87.04 nm; Plasma (ng/mL), ionizable lipid concentration ([6]; 1 h post injection): 5572 ng/mL and 3130 ng/mL and 7622 ng/mL; Liver (ng/g), ionizable lipid concentration ([6]; 6 h post injection): 1864 ng/g and 1834 ng/g; Plasma (ng/mL), ionizable lipid concentration ([6]; 6 h post injection): 2.59 ng/mL and 3.41 ng/mL and 298 ng/mL; concentration at 6 h ([6]; male, Sprague-Dawley, rat, liver, iv, 0.15 mg/kg, 6 h post injection, read-out: Liver (ng/g), ionizable lipid concentration): 1410 ng/g; EE (%) [8, 10]: 90.41%
64.18 nm | 0.02 | 92.11% | CCCCCCCC/C=C\CCCCCCCC(=O)NC(COC(=O)NCCN1CCCCC1)C(=O)OCCCCCC(=O)OCC(CCCCCCCC)CCCCCCCCCC (stereo not shown) [Lipid 792] | 8.10E+05 | 2.90E+08 p/s | 1.01E+08 p/s | 2.18E+09 p/s | 3.20E+07 p/s | 8.04E+07 p/s | 2.74E+09 p/s | 5.01E+08 p/s | 3.20E+08 p/s | 2.76E+09 p/s | 25.9 pg/mL | 6.86 pg/mL | 1620 pg/mL | 216 pg/mL | 81.74% | 
83.82 nm | 0.02 | 98.30% | CCCCC/C=C\C/C=C\CCCCCCCCOC(=O)NC(COC(=O)NCCNC)C(=O)OCCCCCC(=O)OCC(CCCCCCCC)CCCCCCCCCC (stereo not shown) [Lipid 907] | 2.56E+04 | 1.46E+08 p/s | 3.43E+07 p/s | 1.18E+09 p/s | 5.43E+06 p/s | 3.94E+07 p/s | 1.91E+08 p/s | 3.03E+08 p/s | 5.98E+07 p/s | 8.99E+08 p/s | 14 pg/mL | 2.35 pg/mL | 1020 pg/mL | 81.5 pg/mL | 97.33% | 
75.47 nm | 0.02 | 92.12% | CCCCCCCCCC(=O)OCCCCCCCOC(=O)C(COC(=O)NCCN1CCCCC1)NC(=O)OCCCCCCCCOC(=O)C(CCCCCC)CCCCCCCC (stereo not shown) [Lipid 933] | 1.26E+06 | 6.92E+08 p/s | 1.49E+08 p/s | 2.89E+09 p/s | 6.08E+07 p/s | 9.52E+07 p/s | 3.90E+09 p/s | 6.36E+08 p/s | 5.98E+08 p/s | 3.45E+09 p/s | 68.4 pg/mL | 8.03 pg/mL | 1240 pg/mL | 300 pg/mL | 95.05% | 
91.09 nm | 0.13 | 95.49% | CCCCC/C=C\C/C=C\CCCCCCCCOC(=O)NC(COC(=O)NCCN1CCCCCC1)C(=O)OCCCCCCCCCC(=O)OCCCCCCC (stereo not shown) [Lipid 959] | 2.95E+05 | 1.07E+09 p/s | 2.04E+08 p/s | 3.16E+09 p/s | 1.10E+07 p/s | 3.10E+07 p/s | 1.10E+09 p/s | 1.43E+08 p/s | 4.52E+08 p/s | 7.04E+08 p/s | 78.7 pg/mL | 1.8 pg/mL | 1760 pg/mL | 176 pg/mL | 96.03% | 
67.82 nm | 0.01 | 95.55% | CCCCCCCCC(CCCCCC)C(=O)OCCCCCCCCOC(=O)NC(COC(=O)NCCN1CCCCCC1)C(=O)OCCCCCCCCCCC(=O)OCCCCCC (stereo not shown) [Lipid 929] | 2.24E+05 | 2.99E+08 p/s | 5.00E+07 p/s | 1.02E+09 p/s | 2.14E+07 p/s | 9.97E+07 p/s | 3.67E+09 p/s | 3.16E+08 p/s | 4.12E+08 p/s | 2.83E+09 p/s | 14.7 pg/mL | 2.1 pg/mL | 783 pg/mL | 58.6 pg/mL | 100.37% | 
